Measurements taken from US12286429B2, “5-oxo-1,2,3,5,8,8a-hexahydroindolizine-3-carboxamide derivatives useful as a factor XIa inhibitors” (Janssen Pharmaceutica NV, priority 2021, dated 2025).

Legend:
Factor XIa = Factor XIa (Homo sapiens, UniProt P03951); test: Factor XIa inhibition assay utilizing a fluorophore-quencher pair peptide substrate (FLINT); type: biochemical; details: 11-point, 3-fold serial dilution, top 100 nM; 30 min preincubation; 15 μM 5Fam-KLTRAETV-K5Tamra substrate; kinetic reads over 30 min; read-out: FXIa Inhibition IC50
From the text: Biological Example 1: Factor XIa Inhibition Assay Utilizing a Fluorophore-Quencher Pair Peptide Substrate
A fluorescence intensity (FLINT) based assay was used to monitor inhibition of Factor XIa. The peptide substrate, 5Fam-KLTRAETV-K5Tamra (purchased from New England Peptide) was chosen based on the FXI sequence. Conversion of zymogen FXI to its activated form, FXIa, occurs by proteolytic cleavage by […] at two sites, Arg146 and Arg180. The custom peptide used in this assay was based on the Arg146 cleavage site of FXI. The peptide substrate was designed with a fluorophore-quencher pair, where the fluorescence is quenched until FXIa cleaves the 8-mer peptide after the Arg residue.
The Factor XIa FLINT assay was used with the following 5Fam-KLTRAETV-K5Tamra assay buffer: 50 mM Tris, pH 7.5, 100 mM NaCl, 5 mM CaCl2, 0.1 mg/mL BSA, 0.03% CHAPS. Assay buffer was prepared by mixing all ingredients fresh. 5Fam-KLTRAETV-K5Tamra peptide substrate was first prepared at 10 mM in 100% DMSO, then diluted to 3 mM in 100% DMSO. Assay buffer was then added directly to the 3 mM stock of substrate to prepare the 30 μM 2× working concentration (15 μM final concentration). The 2× Factor XIa stock solution was prepared by diluting 6.562 μM stock in 1× assay buffer for a […].
Test compound(s) were run in an 11-point, 3-fold serial dilution with a final top compound concentration of 100 nM. Final DMSO in assay was 2%. FXIa was preincubated with compound for 30-minutes and then substrate was added to initiate the reaction. The assay was run with kinetic (KIN) reads at 5 min intervals over 30 minutes. […] More specifically, the assay was run as follows: • 100 nL of 0.01 mM test compound was dispensed into black 384-well non-binding Greiner BioOne 784900 plate for 0.1 μM final concentration, • 5 μL of 1× assay buffer was dispensed to column 24 (low control) and 5 μL 2× Factor XIa solution was dispensed to columns 1-23 (column 23 high control); • the plate was centrifuged with a “cover” plate at 500 rpm for 1 min • the plate was pre-incubated for 30 minutes at room temperature with plate covered; • 5 μL of 2×5Fam-KLTRAETV-K5Tamra peptide substrate was dispensed into the entire plate, columns 1-24; • the plate was centrifuged with a “cover” plate at 500 rpm for 1 min; • the plate was read monitoring fluorescence intensity on the BMG PHERAStar at room temperature, using fluorescence module 485 nm/520 nm.
(§1) Percent inhibition (IC50) curves were generated per compound tested, and data was analyzed using a 4-parameter logistic fit using GeneData Screener. The relative fluorescence unit (RFU) values were normalized to percent inhibition using the following equation: % inhibition=((HC−LC)−(compound−LC)/(HC−LC))*100
where LC—low control=mean signal of no Factor XIa or 100% inhibition of Factor XIa; HC—high control=mean signal of Factor XIa+5Fam-KLTRAETV-K5Tamra peptide substrate with DMSO only.
(§2) An 11-point dose response curve for the test compound(s) was generated using GENDATA to determine IC50 value based on the following equation: Y=Bottom+(Top−Bottom)/(1+10^((log IC50−X)*HillSlope))
(§3) where Y is the % inhibition in the presence of X inhibitor concentration, Top=high control=mean signal of Factor XIa+5Fam-KLTRAETV-K5Tamra peptide substrate with DMSO only; Bottom=low control—mean signal of no Factor XIa or 100% inhibition of Factor XIa; HillSlope—Hill coefficient; and IC50=concentration of compound with 50% inhibition in relation to top/high control.

human plasma kallikrein = human plasma kallikrein (Homo sapiens, UniProt P03952); test: Kallikrein inhibition assay utilizing a quenched AMC peptide substrate (FLINT); type: biochemical; details: 11-point, 3-fold serial dilution, top 1 μM; 30 min preincubation; 2 nM kallikrein; 50 μM Z-Gly-Pro-Arg-AMC; kinetic reads over 30 min
Description: Biological Example 2: Kallikrein Inhibition Assay Utilizing a Quenched AMC Peptide Substrate
A fluorescence intensity (FLINT) based assay was used to monitor inhibition of human plasma kallikrein. The peptide substrate, Z-Gly-Pro-Arg-AMC (Purchased from Bachem; Catalog #I-1150) was chosen based on its relatively low KM for kallikrein which enables running the assay at lower substrate concentrations to control background fluorescence. The kinetic parameters for this substrate were determined by fitting titration data to the Michaelis-Menten equation yielding a KM=40 μM, kcat=0.76 s^−1, and kcat/KM=18932 M^−1s^−1.
The Kallikrein FLINT assay was used with the following Z-Gly-Pro-Arg-AMC assay buffer: 50 mM Tris, pH 7.5, 100 mM NaCl, 5 mM CaCl2, 0.1 mg/mL BSA, 0.03% CHAPS. Assay buffer was prepared by mixing all ingredients fresh. 2× Z-Gly-Pro-Arg-AMC peptide substrate was prepared by diluting 10 mM stock into 1× assay buffer for a 100 μM working concentration (50 μM final concentration). The 2× kallikrein stock solution was prepared by diluting 14.76 μM stock in 1× assay buffer for a 4 nM working stock solution (2 nM final concentration).
Test compound(s) were run in an 11-point, 3-fold serial dilution with a final top compound concentration of 1 μM. Final DMSO in assay was 2%. Plasma kallikrein was pre-incubated for 30-minute with compound and then 50 μM substrate was added to initiate the reaction. The assay was run with kinetic (KIN) reads at 5 min intervals over 30 minutes. The time course was linear using 2 nM kallikrein greater than 30 minutes. More specifically, the assay was run as follows: • 100 nL of 0.1 mM test compound was dispensed into black 384-well non-binding Greiner BioOne 784900 plate for 1 μM final concentration; • 5 μL of 1× assay buffer was dispensed to columns 24 (low control) and 5 μL 2× human kallikrein enzyme solution was dispensed to columns 1-23 (column 23 high control); • the plate was centrifuged with a “cover” plate at 500 rpm for 1 min • the plate was pre-incubated for 30 minutes at room temperature with plate covered; • 5 μL of 2× Z-Gly-Pro-Arg-AMC peptide substrate was dispensed into the entire plate, columns 1-24; • the plate was centrifuged with a “cover” plate at 500 rpm for 1 min; • the plate was read monitoring fluorescence intensity on the BMG PHERAStar at room temperature, using fluorescence module 340 nm/440 nm.
as §1
where LC—low control=mean signal of […] 100% inhibition of human kallikrein enzyme; HC—high control=mean signal of […]+Z-Gly-Pro-Arg-AMC peptide substrate with DMSO only.
as §2
as §3, with “human kallikrein enzyme+Z-Gly-Pro-Arg-AMC” for “Factor XIa+5Fam-KLTRAETV-K5Tamra”, “human kallikrein enzyme” for “Factor XIa”, “human kallikrein enzyme;” for “Factor XIa;”

Sequence of Factor XIa (P03951 388-625 limits assumed): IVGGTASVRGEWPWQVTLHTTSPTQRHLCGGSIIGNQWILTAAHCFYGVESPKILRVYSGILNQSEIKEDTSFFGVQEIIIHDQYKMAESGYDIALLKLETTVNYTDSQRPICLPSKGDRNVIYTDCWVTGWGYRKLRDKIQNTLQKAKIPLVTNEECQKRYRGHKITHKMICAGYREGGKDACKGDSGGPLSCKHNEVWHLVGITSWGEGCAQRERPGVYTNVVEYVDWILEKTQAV
Sequence of Factor XIa (P03951 19-387 partner limits assumed): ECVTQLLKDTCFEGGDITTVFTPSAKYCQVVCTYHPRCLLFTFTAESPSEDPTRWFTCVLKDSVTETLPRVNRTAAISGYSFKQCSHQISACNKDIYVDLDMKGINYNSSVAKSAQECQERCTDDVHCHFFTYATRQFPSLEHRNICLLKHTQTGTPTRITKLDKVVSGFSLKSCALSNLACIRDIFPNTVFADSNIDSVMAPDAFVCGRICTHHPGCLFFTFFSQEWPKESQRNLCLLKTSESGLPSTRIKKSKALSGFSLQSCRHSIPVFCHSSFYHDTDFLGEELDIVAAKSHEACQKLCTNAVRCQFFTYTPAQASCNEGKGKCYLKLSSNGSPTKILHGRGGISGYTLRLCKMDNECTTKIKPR
Sequence of human plasma kallikrein (P03952 391-638 limits assumed): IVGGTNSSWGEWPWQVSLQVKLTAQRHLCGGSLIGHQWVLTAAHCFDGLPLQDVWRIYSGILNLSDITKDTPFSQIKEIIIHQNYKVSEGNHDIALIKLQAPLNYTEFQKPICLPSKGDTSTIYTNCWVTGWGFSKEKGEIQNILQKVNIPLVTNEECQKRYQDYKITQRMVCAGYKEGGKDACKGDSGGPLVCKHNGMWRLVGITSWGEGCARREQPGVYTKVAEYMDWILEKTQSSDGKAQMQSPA
Sequence of human plasma kallikrein (P03952 20-390 partner limits assumed): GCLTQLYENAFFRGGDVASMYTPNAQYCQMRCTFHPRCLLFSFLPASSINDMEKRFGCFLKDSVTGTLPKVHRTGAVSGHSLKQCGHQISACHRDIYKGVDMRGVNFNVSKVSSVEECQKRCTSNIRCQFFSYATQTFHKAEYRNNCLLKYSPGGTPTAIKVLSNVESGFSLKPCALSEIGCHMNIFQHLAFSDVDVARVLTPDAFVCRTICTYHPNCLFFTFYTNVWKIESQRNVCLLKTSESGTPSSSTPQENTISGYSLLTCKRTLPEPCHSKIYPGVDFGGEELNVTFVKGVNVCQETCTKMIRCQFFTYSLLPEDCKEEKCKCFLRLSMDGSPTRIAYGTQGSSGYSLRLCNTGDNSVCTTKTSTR

Row | SMILES | IC50 (Factor XIa) [nM] | IC50 (human plasma kallikrein) [nM]
1 | O=C(Nc1ccc2c(c1)CN(O)C2=O)[C@@H]1CCC2CC(c3c(-n4cnnn4)ccc(Cl)c3F)=CC(=O)N21 (mixture of isomers) [ID No. 30, (3S)-7-(3-Chloro-2-fluoro-6-(1H-tetrazol-1-yl)phenyl)-N-(2-hydroxy-1-oxoisoindolin-5-yl)-5-oxo-1,2,3,5,8,8a-hexahydroindolizine-3-carboxamide] | > 95 | 128
2 | CN(O)C(=O)c1cc2cc(NC(=O)[C@@H]3CCC4CC(c5c(-n6cnnn6)ccc(Cl)c5F)=CC(=O)N43)ccc2[nH]1 (mixture of isomers) [ID No. 31, 5-((3S)-7-(3-Chloro-2-fluoro-6-(1H-tetrazol-1-yl)phenyl)-5-oxo-1,2,3,5,8,8a-hexahydroindolizine-3-carboxamido)-N-hydroxy-N-methyl-1H-indole-2-carboxamide] | 4.8 | 23.7
3 | O=C(O)/C=C/c1ccc(NC(=O)[C@@H]2CCC3CC(c4c(-n5cnnn5)ccc(Cl)c4F)=CC(=O)N32)cc1 (mixture of isomers) [ID No. 32, (E)-3-(4-((3S)-7-(3-Chloro-2-fluoro-6-(1H-tetrazol-1-yl)phenyl)-5-oxo-1,2,3,5,8,8a-hexahydroindolizine-3-carboxamido)phenyl)acrylic acid] | 1.6 | 14.4
4 | NC(=O)c1c(F)cc(NC(=O)[C@@H]2CCC3CC(c4c(-n5cnnn5)ccc(Cl)c4F)=CC(=O)N32)cc1F (mixture of isomers) [ID No. 33, (3S)—N-(4-Carbamoyl-3,5-difluorophenyl)-7-(3-chloro-2-fluoro-6-(1H-tetrazol-1-yl)phenyl)-5-oxo-1,2,3,5,8,8a-hexahydroindolizine-3-carboxamide] | 24 | 204
5 | CN(O)C(=O)c1ccc(NC(=O)[C@@H]2CCC3CC(c4c(-n5cnnn5)ccc(Cl)c4F)=CC(=O)N32)cc1 (mixture of isomers) [ID No. 34, (3S)-7-(3-Chloro-2-fluoro-6-(1H-tetrazol-1-yl)phenyl)-N-(4-(hydroxy(methyl)carbamoyl)phenyl)-5-oxo-1,2,3,5,8,8a-hexahydroindolizine-3-carboxamide] | 36.3 | 279
6 | O=C(O)c1c(F)cc(NC(=O)[C@@H]2CCC3CC(c4c(-n5cnnn5)ccc(Cl)c4F)=CC(=O)N32)cc1F (mixture of isomers) [ID No. 37, 4-[[(3S)-7-[3-Chloro-2-fluoro-6-(tetrazol-1-yl)phenyl]-5-oxo-2,3,8,8a-tetrahydro-1H-indolizine-3-carbonyl]amino]-2,6-difluoro-benzoic acid] | 5.8 | 282
7 | O=C(Nc1ccc(-c2nc(=O)o[nH]2)cc1)[C@@H]1CCC2CC(c3c(OC(F)F)ccc(Cl)c3F)=CC(=O)N21 (mixture of isomers) [ID No. 38, (3S)-7-(3-Chloro-6-(difluoromethoxy)-2-fluorophenyl)-5-oxo-N-(4-(5-oxo-2,5-dihydro-1,2,4-oxadiazol-3-yl)phenyl)-1,2,3,5,8,8a-hexahydroindolizine-3-carboxamide] | 40.2 | 421
8 | NC(=O)c1ccc(NC(=O)[C@@H]2CCC3CC(c4c(-n5cnnn5)ccc(Cl)c4F)=CC(=O)N32)cc1F (mixture of isomers) [ID No. 39, (3S)—N-(4-Carbamoyl-3-fluorophenyl)-7-(3-chloro-2-fluoro-6-(1H-tetrazol-1-yl)phenyl)-5-oxo-1,2,3,5,8,8a-hexahydroindolizine-3-carboxamide] | 7.5 | 53
9 | NC(=O)c1ccc(NC(=O)[C@@H]2CCC3CC(c4c(-n5cnnn5)ccc(Cl)c4F)=CC(=O)N32)cc1 (mixture of isomers) [ID No. 41, (3S)—N-(4-Carbamoylphenyl)-7-(3-chloro-2-fluoro-6-(1H-tetrazol-1-yl)phenyl)-5-oxo-1,2,3,5,8,8a-hexahydroindolizine-3-carboxamide] | 7.4 | 79.7
10 | O=C(Nc1ccc(-c2nc(=O)o[nH]2)c(F)c1)[C@@H]1CCC2CC(c3c(-n4cnnn4)ccc(Cl)c3F)=CC(=O)N21 (mixture of isomers) [ID No. 42, (3S)-7-[3-Chloro-2-fluoro-6-(tetrazol-1-yl)phenyl]-N-[3-fluoro-4-(5-oxo-2H-1,2,4-oxadiazol-3-yl)phenyl]-5-oxo-2,3,8,8a-tetrahydro-1H-indolizine-3-carboxamide] | 0.3 | 10
11 | CO[C@@H]1C[C@@H](C(=O)Nc2ccc3n[nH]cc3c2)N2C(=O)C=C(c3c(-n4cnnn4)ccc(Cl)c3F)CC12 (mixture of isomers) [ID No. 43, (1R,3S)-7-[3-Chloro-2-fluoro-6-(tetrazol-1-yl)phenyl]-N-(2H-indazol-5-yl)-1-methoxy-5-oxo-2,3,8,8a-tetrahydro-1H-indolizine-3-carboxamide] | 11 | 31.3
12 | CO[C@@H]1C[C@@H](C(=O)Nc2ccc3nn(C)cc3c2)N2C(=O)C=C(c3c(-n4cnnn4)ccc(Cl)c3F)CC12 (mixture of isomers) [ID No. 44, (1R,3S)-7-[3-Chloro-2-fluoro-6-(tetrazol-1-yl)phenyl]-1-methoxy-N-(2-methyl-2H-indazol-5-yl)-5-oxo-2,3,8,8a-tetrahydro-1H-indolizine-3-carboxamide] | 10.9 | 31.4
13 | CO[C@@H]1C[C@@H](C(=O)Nc2ccc3ncccc3c2)N2C(=O)C=C(c3c(-n4cnnn4)ccc(Cl)c3F)CC12 (mixture of isomers) [ID No. 45, (1R,3S)-7-[3-Chloro-2-fluoro-6-(tetrazol-1-yl)phenyl]-1-methoxy-5-oxo-N-(6-quinolyl)-2,3,8,8a-tetrahydro-1H-indolizine-3-carboxamide] | 7.8 | 14
